Patent US9376442B2, “Methylpyrrolopyrimidinecarboxamides” (Takeda GmbH, priority 2009, dated 2016)

Experiments:
PDE4B1 = biological target: T1, PDE4B1 (Homo sapiens, UniProt Q07343); assay: Inhibition of type 4 phosphodiesterase (PDE4) activity, modified SPA test with recombinant PDE4B1 expressed in SF21 insect cells; format: biochemical; settings: recombinant PDE4B1, 0.5 μM cAMP, read-out: PDE4B1 inhibitory values [measured as −log IC50 (mol/l)] (converted)
T1 construct: made in house; host or cells: SF21 insect cells (baculovirus; pCRBac vector), 1000 x g supernatant of homogenate
T1 sequence (Q07343 whole entry): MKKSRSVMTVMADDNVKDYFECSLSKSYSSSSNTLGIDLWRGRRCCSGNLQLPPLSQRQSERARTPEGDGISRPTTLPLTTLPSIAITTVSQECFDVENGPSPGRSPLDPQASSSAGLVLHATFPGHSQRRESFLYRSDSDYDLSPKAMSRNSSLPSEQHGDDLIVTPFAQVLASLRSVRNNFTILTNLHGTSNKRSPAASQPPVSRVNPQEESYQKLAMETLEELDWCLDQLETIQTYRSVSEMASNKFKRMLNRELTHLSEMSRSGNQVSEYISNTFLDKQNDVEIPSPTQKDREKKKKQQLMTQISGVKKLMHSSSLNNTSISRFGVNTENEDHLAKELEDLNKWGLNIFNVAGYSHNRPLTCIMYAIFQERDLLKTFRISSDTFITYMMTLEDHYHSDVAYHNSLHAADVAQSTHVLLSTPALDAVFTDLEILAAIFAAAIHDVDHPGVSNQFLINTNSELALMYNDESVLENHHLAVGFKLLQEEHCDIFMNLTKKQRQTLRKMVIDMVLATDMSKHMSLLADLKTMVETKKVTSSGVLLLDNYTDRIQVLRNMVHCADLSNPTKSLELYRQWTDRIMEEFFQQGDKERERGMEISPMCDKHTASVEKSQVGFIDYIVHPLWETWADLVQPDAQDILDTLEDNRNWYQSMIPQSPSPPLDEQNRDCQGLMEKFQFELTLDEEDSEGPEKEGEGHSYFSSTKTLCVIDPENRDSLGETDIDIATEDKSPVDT
Protocol: Method for Measuring Inhibition of the Type 4 Phosphodiesterase (PDE4) Activity:
The PDE4B1 (GB no. L20966) was a gift of Prof. M. Conti (Stanford University, USA). It was amplified from the original plasmid (pCMV5) via PCR with primers Rb18 (5′-[…]-3′) and Rb10 (5′-[…]-3′) and cloned into the pCRBac vector (Invitrogen, Groningen, NL).
The recombinant baculovirus was prepared by means of homologous recombination in SF9 insect cells. The expression plasmids were cotransfected with Baculo-Gold DNA (Pharmingen, Hamburg) using a standard protocol (Pharmingen, Hamburg). Wt virus-free recombinant virus supernatants were selected using plaque assay methods. After that, high-titre virus supernatants were prepared by amplifying 3 times. PDE4B1 was expressed in SF21 cells by infecting 2×10^6 cells/ml with an MOI (multiplicity of infection) between 1 and 10 in the serum-free medium Insect Express Sf9-S2 (PAA, Pasching, Austria). The cells were cultured at 28° C. for 48-72 hours, after which they were pelleted for 5-10 min at 1000×g and 4° C.
The SF21 insect cells were resuspended, at a concentration of approx. 10^7 cells/ml, in ice-cold (4° C.) homogenization buffer (20 mM Tris, pH 8.2, containing the following additions: 140 mM NaCl, 3.8 mM KCl, 1 mM EGTA, 1 mM MgCl2, 10 mM (3-mercaptoethanol, 2 mM benzamidine, 0.4 mM Pefablock, 10 μM leupeptin, 10 μM pepstatin A, 5 μM trypsin inhibitor) and disrupted by ultrasonication. The homogenate was then centrifuged for 10 min at 1000×g and the supernatant was stored at −80° C. until subsequent use (see below). The protein content was determined by the Bradford method (BioRad, Munich) using BSA as the standard.
PDE4B1 activity was inhibited by the compounds according to the present subject matter in a modified SPA (scintillation proximity assay) test, supplied by Amersham Biosciences (see procedural instructions “phosphodiesterase [3H]cAMP SPA enzyme assay, code TRKQ 7090”), carried out in 96-well microtitre plates (MTP's). The test volume is 100 μl and contains 20 mM Tris buffer (pH 7.4), 0.1 mg/ml of BSA, 5 mM Mg^2+, 0.5 μM cAMP (including about 50,000 cpm of [3H]cAMP), 1 μl of the respective substance dilution in DMSO and sufficient recombinant PDE (1000×g supernatant, see above) to ensure that 10-20% of the cAMP is converted under the said experimental conditions. […] After a preincubation of 5 min at 37° C., the reaction is started by adding the substrate (cAMP) and the assays are incubated for a further 15 min; after that, they are stopped by adding SPA beads (50 μl). In accordance with the manufacturer's instructions, the SPA beads had previously been resuspended in water, but were then diluted 1:3 (v/v) in water; the diluted solution also contains 3 mM IBMX to ensure a complete PDE activity stop. After the beads have been sedimented (>30 min), the MTP's are analyzed in commercially available luminescence detection devices. The corresponding IC50 values of the compounds for the inhibition of PDE4B1 activity are determined from the concentration-effect curves by means of non-linear regression.

PDE5A1 = biological target: T2, PDE5A1 (Homo sapiens, UniProt O76074); assay: Inhibition of type 5 phosphodiesterase (PDE5) activity, modified SPA test with human platelet lysate; format: biochemical; settings: 0.5 μM cGMP, read-out: PDE5A1 inhibitory values [measured as −log IC50 (mol/l)] (converted)
T2 construct: from tissue; host or cells: human platelets from fresh donor blood (10,000 x g supernatant of sonicated lysate)
Method in brief: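 Enzyme source is lysate from human platelets (10,000 g supernatant). Compound preincubated 5 min at 37° C in Tris pH 7.4 containing 1 μM motapizone and 10 nM of a PDE2 inhibitor. Reaction started with 0.5 μM cGMP ([3H] tracer) and run 15 min; SPA read-out, IC50 by non-linear regression.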

Row | SMILES | IC50 (PDE4B1) [nM] | IC50 (PDE5A1) [nM]
1 | CCc1ccc(OCC2CC2)c(-c2ncnc3c(C(=O)N[C@H]4CC[C@H](NC(=O)COC)CC4)c(C)[nH]c23)c1 [Example E150, 4-[2-(Cyclopropylmethoxy)-5-ethylphenyl]-N-{trans-4-[(methoxyacetyl)amino]cyclohexyl}-6-methyl-5H-pyrrolo[3,2-d]pyrimidine-7-carboxamide] | < 100 | < 1
2 | CCC(=O)N1CCC(NC(=O)c2c(C)[nH]c3c(-c4cc(C(F)(F)F)ccc4OCC4CC4)ncnc23)CC1 [Example E91, 4-[2-(Cyclopropylmethoxy)-5-(trifluoromethyl)phenyl]-6-methyl-N-(1-propanoylpiperidin-4-yl)-5H-pyrrolo[3,2-d]pyrimidine-7-carboxamide] | < 100 | < 1
3 | COc1ccc(OCC2CC2)c(-c2ncnc3c(C(=O)NC4CCC(NC(=O)C(C)O)CC4)c(C)[nH]c23)c1 (stereo not drawn) [Example F44, 4-[2-(Cyclopropylmethoxy)-5-methoxyphenyl]-N-(trans-4-{[(25)-2-hydroxypropanoyl]amino}cyclohexyl)-6-methyl-5H-pyrrolo[3,2-d]pyrimidine-7-carboxamide] | 100 to 1000 | < 1
4 | Cc1[nH]c2c(-c3cc(F)ccc3OCC3CC3)ncnc2c1C(=O)NC1CCN(C(=O)[C@H](C)O)CC1 [Example F24, 4-(2-Cyclopropylmethoxy-5-fluoro-phenyl)-6-methyl-5H-pyrrolo[3,2-d]pyrimidine-7-carboxylic acid [1-((S)-2-hydroxy-propionyl)-piperidin-4-yl]-amide] | 100 to 1000 | < 1
5 | COCC(=O)N[C@H]1CC[C@H](NC(=O)c2c(C)[nH]c3c(-c4cc(F)ccc4OCC4CC4)ncnc23)CC1 [Example E43, 4-[2-(Cyclopropylmethoxy)-5-fluorophenyl]-N-{trans-4-[(methoxyacetyl)amino]cyclohexyl}-6-methyl-5H-pyrrolo[3,2-d]pyrimidine-7-carboxamide] | < 100 | < 1
6 | CCC(=O)N[C@H]1CC[C@H](NC(=O)c2c(C)[nH]c3c(-c4cc(C)ccc4OCC4CC4)ncnc23)CC1 [Example E85, 4-[2-(Cyclopropylmethoxy)-5-methylphenyl]-6-methyl-N-[trans-4-(propanoylamino)cyclohexyl]-5H-pyrrolo[3,2-d]pyrimidine-7-carboxamide] | < 100 | < 1
7 | COCC(=O)N[C@H]1CC[C@@H](NC(=O)c2c(C)[nH]c3c(-c4cc(OC)ccc4OCC4CC4)ncnc23)CC1 [Example E74, 4-[2-(Cyclopropylmethoxy)-5-methoxyphenyl]-N-{cis-4-[(methoxyacetyl)amino]cyclohexyl}-6-methyl-5H-pyrrolo[3,2-d]pyrimidine-7-carboxamide] | 100 to 1000 | < 1
8 | CCC(=O)N1CCC(NC(=O)c2c(C)[nH]c3c(-c4cc(C)ccc4OCC4CC4)ncnc23)CC1 [Example E82, 4-[2-(Cyclopropylmethoxy)-5-methylphenyl]-6-methyl-N-(1-propanoylpiperidin-4-yl)-5H-pyrrolo[3,2-d]pyrimidine-7-carboxamide] | < 100 | < 1
9 | CCC(=O)N1CCC(NC(=O)c2c(C)[nH]c3c(-c4cc(C)ccc4OCC4CC4)nc(C)nc23)CC1 [Example E170, 4-[2-(Cyclopropylmethoxy)-5-methylphenyl]-2,6-dimethyl-N-(1-propanoylpiperidin-4-yl)-5H-pyrrolo[3,2-d]pyrimidine-7-carboxamide] | 100 to 1000 | < 1
10 | Cc1ccc(OCC2CC2)c(-c2ncnc3c(C(=O)N[C@H]4CC[C@@H](NC(=O)[C@H](C)O)CC4)c(C)[nH]c23)c1 [Example F56, 4-[2-(Cyclopropylmethoxy)-5-methylphenyl]-N-(cis-4-{[(2S)-2-hydroxypropanoyl]amino}cyclohexyl)-6-methyl-5H-pyrrolo[3,2-d]pyrimidine-7-carboxamide] | < 100 | < 1
11 | Cc1ccc(OCC2CC2)c(-c2ncnc3c(C(=O)N[C@H]4CCC[C@@H]4O)c(C)[nH]c23)c1 [Example E176, 4-[2-(Cyclopropylmethoxy)-5-methylphenyl]-N-[(1S,2S)-2-hydroxycyclopentyl]-6-methyl-5H-pyrrolo[3,2-d]pyrimidine-7-carboxamide] | < 100 | < 1
12 | COCC(=O)N[C@H]1CC[C@@H](NC(=O)c2c(C)[nH]c3c(-c4cc(C(F)(F)F)ccc4OCC4CC4)ncnc23)CC1 [Example E98, 4-[2-(Cyclopropylmethoxy)-5-(trifluoromethyl)phenyl]-N-{cis-4-[(methoxyacetyl)amino]cyclohexyl}-6-methyl-5H-pyrrolo[3,2-d]pyrimidine-7-carboxamide] | < 100 | < 1
13 | CCc1ccc(OCC2CC2)c(-c2ncnc3c(C(=O)N[C@@H]4CN(C(=O)CO)C[C@H]4O)c(C)[nH]c23)c1 (relative stereo) [Example F97, 4-[2-(Cyclopropylmethoxy)-5-ethylphenyl]-N-[(3R*,4R*)-4-hydroxy-1-(hydroxyacetyl)pyrrolidin-3-yl]-6-methyl-5H-pyrrolo[3,2-d]pyrimidine-7-carboxamide] | 100 to 1000 | 1 to 10
14 | CCc1ccc(OCC2CC2)c(-c2ncnc3c(C(=O)N[C@H]4CC[C@@H](NC(=O)CO)CC4)c(C)[nH]c23)c1 [Example F95, 4-[2-(Cyclopropylmethoxy)-5-ethylphenyl]-N-{cis-4-[(hydroxyacetyl)amino]cyclohexyl}-6-methyl-5H-pyrrolo[3,2-d]pyrimidine-7-carboxamide] | < 100 | < 1
15 | COc1ccc(OCC2CC2)c(-c2ncnc3c(C(=O)N[C@H]4CC[C@@H](NC(C)=O)CC4)c(C)[nH]c23)c1 [Example E72, N-(cis-4-acetamidocyclohexyl)-4-[2-(cyclopropylmethoxy)-5-methoxyphenyl]-6-methyl-5H-pyrrolo[3,2-d]pyrimidine-7-carboxamide] | 100 to 1000 | < 1
16 | Cc1[nH]c2c(-c3cc(C(F)(F)F)ccc3OCC3CC3)ncnc2c1C(=O)N[C@H]1CC[C@@H](NC(=O)[C@H](C)O)CC1 [Example F62, 4-[2-(Cyclopropylmethoxy)-5-(trifluoromethyl)phenyl]-N-(cis-4-{[(2S)-2-hydroxypropanoyl]amino}cyclohexyl)-6-methyl-5H-pyrrolo[3,2-d]pyrimidine-7-carboxamide] | < 100 | < 1
17 | COc1ccc(OCC2CC2)c(-c2ncnc3c(C(=O)N[C@H]4CC[C@@H](NC(=O)[C@H](C)O)CC4)c(C)[nH]c23)c1 [Example F46, 4-[2-(cyclopropylmethoxy)-5-methoxyphenyl]-N-(cis-4-{[(2S)-2-hydroxypropanoyl]amino}cyclohexyl)-6-methyl-5H-pyrrolo[3,2-d]pyrimidine-7-carboxamide] | 100 to 1000 | < 1
18 | Cc1[nH]c2c(-c3cc(F)ccc3OCC3CC3)ncnc2c1C(=O)N[C@H]1CC[C@@H](NC(=O)[C@H](C)O)CC1 [Example F27, 4-[2-(Cyclopropylmethoxy)-5-fluorophenyl]-N-(cis-4-{[(2S)-2-hydroxypropanoyl]amino}cyclohexyl)-6-methyl-5H-pyrrolo[3,2-d]pyrimidine-7-carboxamide] | 100 to 1000 | 1 to 10
